# Patent US9944602B2, “Piperidinone herbicides” (E. I. DU PONT DE NEMOURS AND COMPANY, priority 2014, dated 2018)
# Tests used:
# Assay type in all cases: in vivo
# [1] = tested on: sedge, umbrella (small-flower umbrella sedge, Cyperus difformis); assay: Test B flooded paddy test sedge, umbrella; settings: Table B, Flood, 250 g ai/ha, scale 0 to 100
# Procedure, shortened: (§1)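 Plants grown to the 2-leaf stage; pots flooded to 3 cm above soil at treatment, compound applied directly into paddy water, depth held throughout. Greenhouse 13 to 15 d, then visual evaluation against untreated controls.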
# kochia (Kochia scoparia) [2] = assay: Test A preemergence kochia; settings: 0 to 100 scale, 0 no effect, 100 complete control
# Procedure, shortened: (§2)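 Directed soil spray at planting gives preemergence data; foliar application to one- to two-leaf plants gives postemergence data. Response is visual injury relative to untreated controls about 10 d after treatment, scored 0–100.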
# [3] = tested on: ryegrass, Italian (Italian ryegrass, Lolium multiflorum); assay: Test A preemergence ryegrass, Italian; settings: 0 to 100 scale, 0 no effect, 100 complete control
# Procedure, shortened: as §2
# kochia (Kochia scoparia) [4] = assay: Test A postemergence kochia; settings: 0 to 100 scale, 0 is no effect, 100 is complete control
# Procedure, shortened: as §2
# [5] = tested on: barnyardgrass (Echinochloa crus-galli); assay: Test A postemergence barnyardgrass; settings: 0 to 100 scale, 0 is no effect, 100 is complete control
# Procedure, shortened: as §2
# [6] = tested on: pigweed (Amaranthus retroflexus); assay: Test A postemergence pigweed; settings: 0 to 100 scale, 0 is no effect, 100 is complete control
# Procedure, shortened: as §2
# corn (Zea mays) = assay: Test A postemergence corn; settings: 0 to 100 scale, 0 is no effect, 100 is complete control
# Procedure, shortened: as §2
# [7] = tested on: foxtail, giant (giant foxtail, Setaria faberii); assay: Test A preemergence foxtail, giant; settings: 0 to 100 scale, 0 no effect, 100 complete control
# Procedure, shortened: as §2
# [8] = tested on: pigweed (Amaranthus retroflexus); assay: Test A preemergence pigweed; settings: 0 to 100 scale, 0 no effect, 100 complete control
# Procedure, shortened: as §2
# [9] = tested on: ragweed (common ragweed, Ambrosia elatior); assay: Test A preemergence ragweed; settings: 0 to 100 scale, 0 no effect, 100 complete control
# Procedure, shortened: as §2
# [10] = tested on: ryegrass, Italian (Italian ryegrass, Lolium multiflorum); assay: Test A postemergence ryegrass, Italian; settings: 0 to 100 scale, 0 is no effect, 100 is complete control
# Procedure, shortened: as §2
# [11] = tested on: ducksalad (Heteranthera limosa); assay: Test B flooded paddy test ducksalad; settings: Table B, Flood, 250 g ai/ha, scale 0 to 100
# Procedure, shortened: as §1
# [12] = tested on: foxtail, giant (giant foxtail, Setaria faberii); assay: Test A postemergence foxtail, giant; settings: 0 to 100 scale, 0 is no effect, 100 is complete control
# Procedure, shortened: as §2
# [13] = tested on: barnyardgrass (Echinochloa crus-galli); assay: Test B flooded paddy test barnyardgrass; settings: Table B, Flood, 250 g ai/ha, scale 0 to 100
# Procedure, shortened: as §1
# [14] = tested on: wheat (Triticum aestivum); assay: Test A postemergence wheat; settings: 0 to 100 scale, 0 is no effect, 100 is complete control
# Procedure, shortened: as §2
# [15] = tested on: ragweed (common ragweed, Ambrosia elatior); assay: Test A postemergence ragweed; settings: 0 to 100 scale, 0 is no effect, 100 is complete control
# Procedure, shortened: as §2
# [16] = tested on: barnyardgrass (Echinochloa crus-galli); assay: Test A preemergence barnyardgrass; settings: 0 to 100 scale, 0 no effect, 100 complete control
# Procedure, shortened: as §2
# [17] = tested on: blackgrass (Alopecurus myosuroides); assay: Test A postemergence blackgrass; settings: 0 to 100 scale, 0 is no effect, 100 is complete control
# Procedure, shortened: as §2
# [18] = tested on: galium (catchweed bedstraw, Galium aparine); assay: Test A postemergence galium; settings: 0 to 100 scale, 0 is no effect, 100 is complete control
# Procedure, shortened: as §2
# rice (Oryza sativa) = assay: Test B flooded paddy test rice; settings: Table B, Flood, 250 g ai/ha, scale 0 to 100
# Procedure, shortened: as §1
SMILES,Plant response rating [1],Kochia plant response rating (kochia (Kochia scoparia) [2]; 125 g ai/ha),Kochia plant response rating (kochia (Kochia scoparia) [2]; 500 g ai/ha),"Ryegrass, Italian plant response rating ([3]; 125 g ai/ha)","Ryegrass, Italian plant response rating ([3]; 500 g ai/ha)","Plant response rating, Kochia (kochia (Kochia scoparia) [4]; 125 g ai/ha)","Plant response rating, Kochia (kochia (Kochia scoparia) [4]; 500 g ai/ha)","Plant response rating, Barnyardgrass ([5]; 125 g ai/ha)","Plant response rating, Barnyardgrass ([5]; 500 g ai/ha)","Plant response rating, Pigweed ([6]; 125 g ai/ha)","Plant response rating, Pigweed ([6]; 500 g ai/ha)","Plant response rating, Corn (corn (Zea mays); 125 g ai/ha)","Plant response rating, Corn (corn (Zea mays); 500 g ai/ha)","Foxtail, Giant plant response rating ([7]; 125 g ai/ha)","Foxtail, Giant plant response rating ([7]; 500 g ai/ha)",Pigweed plant response rating ([8]; 125 g ai/ha),Pigweed plant response rating ([8]; 500 g ai/ha),Ragweed plant response rating ([9]; 125 g ai/ha),Ragweed plant response rating ([9]; 500 g ai/ha),"Plant response rating, Ryegrass, Italian ([10]; 125 g ai/ha)",other results
O=C1NCC[C@@H](c2cccc(C(F)(F)F)c2)[C@@H]1C(=O)Nc1cccc(F)c1F [Compound 20],0,0,0,0,0,0,0,40,80,0,0,0,20,60,90,0,0,0,0,0,"Plant response rating, Ryegrass, Italian ([10]; 500 g ai/ha): 20; Plant response rating [11]: 0; Plant response rating, Foxtail, Giant ([12]; 125 g ai/ha): 40; Plant response rating, Foxtail, Giant ([12]; 500 g ai/ha): 80; Plant response rating [13]: 0; Plant response rating, Wheat ([14]; 125 g ai/ha): 0; Plant response rating, Wheat ([14]; 500 g ai/ha): 0; Plant response rating, Ragweed ([15]; 125 g ai/ha): 0; Plant response rating, Ragweed ([15]; 500 g ai/ha): 0; Barnyardgrass plant response rating ([16]; 125 g ai/ha): 50; Barnyardgrass plant response rating ([16]; 500 g ai/ha): 90; Plant response rating, Blackgrass ([17]; 125 g ai/ha): 0; Plant response rating, Blackgrass ([17]; 500 g ai/ha): 20; Plant response rating, Galium ([18]; 125 g ai/ha): 0; Plant response rating, Galium ([18]; 500 g ai/ha): 0; Plant response rating (rice (Oryza sativa)): 0"
O=C1NCC[C@@H](c2ccc(C(F)(F)F)cc2)[C@@H]1C(=O)Nc1cccc(F)c1F [Compound 23],0,0,40,0,20,20,50,20,70,0,0,0,20,30,80,0,0,0,60,0,"Plant response rating, Ryegrass, Italian ([10]; 500 g ai/ha): 20; Plant response rating [11]: 0; Plant response rating, Foxtail, Giant ([12]; 125 g ai/ha): 20; Plant response rating, Foxtail, Giant ([12]; 500 g ai/ha): 60; Plant response rating [13]: 0; Plant response rating, Wheat ([14]; 125 g ai/ha): 0; Plant response rating, Wheat ([14]; 500 g ai/ha): 20; Plant response rating, Ragweed ([15]; 125 g ai/ha): 0; Plant response rating, Ragweed ([15]; 500 g ai/ha): 0; Barnyardgrass plant response rating ([16]; 125 g ai/ha): 30; Barnyardgrass plant response rating ([16]; 500 g ai/ha): 70; Plant response rating, Blackgrass ([17]; 125 g ai/ha): 0; Plant response rating, Blackgrass ([17]; 500 g ai/ha): 10; Plant response rating, Galium ([18]; 125 g ai/ha): 0; Plant response rating, Galium ([18]; 500 g ai/ha): 20; Plant response rating (rice (Oryza sativa)): 0"
O=C1NCC[C@@H](c2cccc(C(F)(F)F)c2)[C@@H]1C(=O)Nc1cccc(Cl)c1F [Compound 24],0,0,0,0,0,0,0,50,80,0,0,20,30,70,80,0,0,0,0,0,"Plant response rating, Ryegrass, Italian ([10]; 500 g ai/ha): 20; Plant response rating [11]: 0; Plant response rating, Foxtail, Giant ([12]; 125 g ai/ha): 50; Plant response rating, Foxtail, Giant ([12]; 500 g ai/ha): 80; Plant response rating [13]: 0; Plant response rating, Wheat ([14]; 125 g ai/ha): 20; Plant response rating, Wheat ([14]; 500 g ai/ha): 30; Plant response rating, Ragweed ([15]; 125 g ai/ha): 0; Plant response rating, Ragweed ([15]; 500 g ai/ha): 0; Barnyardgrass plant response rating ([16]; 125 g ai/ha): 50; Barnyardgrass plant response rating ([16]; 500 g ai/ha): 80; Plant response rating, Blackgrass ([17]; 125 g ai/ha): 0; Plant response rating, Blackgrass ([17]; 500 g ai/ha): 30; Plant response rating, Galium ([18]; 125 g ai/ha): 0; Plant response rating, Galium ([18]; 500 g ai/ha): 0; Plant response rating (rice (Oryza sativa)): 0"
O=C1NCC[C@@H](c2cccc(C(F)(F)F)c2)[C@@H]1C(=O)Nc1ccc(F)c(F)c1F [Compound 29],0,0,0,0,0,0,0,0,30,0,0,0,0,0,20,0,0,0,0,0,"Plant response rating, Ryegrass, Italian ([10]; 500 g ai/ha): 0; Plant response rating [11]: 0; Plant response rating, Foxtail, Giant ([12]; 125 g ai/ha): 0; Plant response rating, Foxtail, Giant ([12]; 500 g ai/ha): 0; Plant response rating [13]: 0; Plant response rating, Wheat ([14]; 125 g ai/ha): 0; Plant response rating, Wheat ([14]; 500 g ai/ha): 0; Plant response rating, Ragweed ([15]; 125 g ai/ha): 0; Plant response rating, Ragweed ([15]; 500 g ai/ha): 0; Barnyardgrass plant response rating ([16]; 125 g ai/ha): 0; Barnyardgrass plant response rating ([16]; 500 g ai/ha): 20; Plant response rating, Blackgrass ([17]; 125 g ai/ha): 0; Plant response rating, Blackgrass ([17]; 500 g ai/ha): 0; Plant response rating, Galium ([18]; 125 g ai/ha): 0; Plant response rating, Galium ([18]; 500 g ai/ha): 0; Plant response rating (rice (Oryza sativa)): 0"
